According to PMC4113456, “Atypical Signaling and Functional Desensitization Response of MAS Receptor to Peptide Ligands” (PLoS ONE, 2014):
Changes are numbered by the printed parent chain. Marks after values point to notes of the source that are not given here.

Key:
[1] = target: T1, MAS (Homo sapiens, UniProt P04201); test: HTRF IP1 assay, induced myc-tagged WT MAS HEK293 stable cell line; assay type: cell-based
T1 construct: expressed in transfected cells
T1 sequence (P04201 1-325): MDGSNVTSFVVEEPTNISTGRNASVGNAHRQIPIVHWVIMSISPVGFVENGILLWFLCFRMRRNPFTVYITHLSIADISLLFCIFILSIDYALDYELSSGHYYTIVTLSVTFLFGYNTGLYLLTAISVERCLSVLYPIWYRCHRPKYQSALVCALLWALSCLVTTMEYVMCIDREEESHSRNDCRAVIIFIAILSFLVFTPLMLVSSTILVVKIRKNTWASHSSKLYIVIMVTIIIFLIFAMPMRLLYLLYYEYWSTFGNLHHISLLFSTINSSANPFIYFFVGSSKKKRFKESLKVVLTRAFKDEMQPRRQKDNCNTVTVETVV
Procedure: IP1 levels in the cells were measured using the IP-One Tb kit (Cisbio US, Bedford, MA). For the assay, cells were seeded onto a 384-well low volume white cell culture plate at a density of 25,000 cells/well in 20 µl of induction or complete medium. In the IP1 assays the cell density of 25,000 cells/well was consistently maintained to minimize variability between independent experiments. The cells were maintained in a cell culture incubator for 26–28 h. The cells were then serum starved for 2 h by replacing the medium with 7 µl of serum free DMEM/F-12. During this step, 7 µl of serum free DMEM/F-12 was also added to the wells to which IP1 standards would be subsequently added. […] The cells were then placed in the cell culture incubator for 4 h. Later, 3 µl each of d2-labeled IP1 and anti-IP1 cryptate Tb conjugated antibody diluted in lysis buffer was added sequentially to all the wells and the plate was incubated overnight in the dark at room temperature. Time-resolved ratiometric fluorescence emission measurements at 665 nm and 620 nm were taken after excitation at 343 nm on FlexStation 3 instrument.
For the IP1 assay, a standard curve was generated using the 4-Parameter logistic equation fit of the HTRF readings of IP1 standards using the SoftMax Pro software. The IP1 concentrations in the experiments were extrapolated based on the standard curve parameters. […] For all the assays, the EC50 and IC50 values were estimated by fitting the data to a three parameter dose response using GraphPad Prism software (GraphPad, La Jolla, CA).

[2] = target: T2, MAS F112A mutant (Homo sapiens, UniProt P04201, F112A); test: IP1 assay, F112A MAS mutant stable cell line; assay type: cell-based
T2 construct: expressed in transfected cells
T2 sequence (P04201 1-325 F112A): T1 sequence (P04201 1-325) with F112A
Text: (§1) The WT MAS expression construct was synthesized with an N-terminal myc-tag (Figure 1) by GenScript (Piscataway, NJ). The myc-tagged WT MAS from this vector was initially sub-cloned into pcDNA3.1 and later sub-cloned into tetracycline/doxycycline inducible vector pcDNA 5/TO (Life Technologies, Grand Island, NY). Four different ligand binding MAS mutants (F112A, I191A, M244A and T270A) were created using site-directed mutagenesis of WT myc-tagged MAS in pcDNA3.1 or pcDNA 5/TO vector background (Agilent Technologies, Santa Clara, CA). WT MAS receptor without an epitope tag was constructed by replacing the 5′ portion of the myc-tagged WT MAS in pcDNA 5/TO by untagged MAS sequence from a plasmid construct provided as a gift from Arena Pharmaceuticals, Inc. (San Diego, CA). The sequences of all WT and mutant MAS genes in plasmid constructs were verified by capillary DNA sequencing at the Genomics Core at Lerner Research Institute (Cleveland, OH).
(§2) IP1 levels in the cells were measured using the IP-One Tb kit (Cisbio US, Bedford, MA). For the assay, cells were seeded onto a 384-well low volume white cell culture plate at a density of 25,000 cells/well in 20 µl of induction or complete medium. In the IP1 assays the cell density of 25,000 cells/well was consistently maintained to minimize variability between independent experiments. The cells were maintained in a cell culture incubator for 26–28 h. […] Time-resolved ratiometric fluorescence emission measurements at 665 nm and 620 nm were taken after excitation at 343 nm on FlexStation 3 instrument. […]
(§3) For re-stimulation assays, the data is expressed as the percentage of maximum agonist stimulation to allow for ready comparison between individual experiments. For the IP1 assay, a standard curve was generated using the 4-Parameter logistic equation fit of the HTRF readings of IP1 standards using the SoftMax Pro software. […] In the luciferase assay, the luminescence measurements (RLU) are presented as a ratio of firefly to renilla luciferase activity. […]

[3] = target: T3, MAS I191A mutant (Homo sapiens, UniProt P04201, I191A); test: IP1 assay, I191A MAS mutant stable cell line; assay type: cell-based
T3 construct: expressed in transfected cells
T3 sequence (P04201 1-325 I191A): T1 sequence (P04201 1-325) with I191A
Text: as §1
IP1 levels in the cells were measured using the IP-One Tb kit (Cisbio US, Bedford, MA). For the assay, cells were seeded onto a 384-well low volume white cell culture plate at a density of 25,000 cells/well in 20 µl of induction or complete medium. In the IP1 assays the cell density of 25,000 cells/well was consistently maintained to minimize variability between independent experiments. The cells were maintained in a cell culture incubator for 26–28 h. The cells were then serum starved for 2 h by replacing the medium with 7 µl of serum free DMEM/F-12. During this step, 7 µl of serum free DMEM/F-12 was also added to the wells to which IP1 standards would be subsequently added. Following serum starvation, 7 µl of ligands and serially diluted IP1-standards prepared at 2x concentration in stimulation buffer (10 mM Hepes, 1 mM CaCl2, 0.5 mM MgCl2, 4.2 mM KCl, 146 mM NaCl, 5.5 mM glucose, 50 mM LiCl, pH 7.4) were added to the appropriate wells. The cells were then placed in the cell culture incubator for 4 h. Later, 3 µl each of d2-labeled IP1 and anti-IP1 cryptate Tb conjugated antibody diluted in lysis buffer was added sequentially to all the wells and the plate was incubated overnight in the dark at room temperature. Time-resolved ratiometric fluorescence emission measurements at 665 nm and 620 nm were taken after excitation at 343 nm on FlexStation 3 instrument. […]
as §3

[4] = target: T4, MAS T270A mutant (Homo sapiens, UniProt P04201, T270A); test: IP1 assay, T270A MAS mutant stable cell line; assay type: cell-based
T4 construct: expressed in transfected cells
T4 sequence (P04201 1-325 T270A): T1 sequence (P04201 1-325) with T270A
Text: as §1, §2, §3

[5] = tested on: MAS; set-up: method as in ref [9] (a number printed in a supplementary file, which may have a reference list of its own: not looked up in the article's list); settings: Rat MAS; ref [9]; read-out: EC50 (IP1 assay); cited from earlier work

SMILES | EC50 ([1]; WT MAS, induced cells) [nM] | Fold over WT, EC50 IP1 assay ([1]; WT construct) | EC50, IP1 assay [2] | EC50 [3] [nM] | Fold over WT, EC50 IP1 assay [3] | EC50, IP1 assay [4] | EC50 [5] [nM] | IC50 ([1]; WT MAS, induced cells, inhibition of constitutive activity) [nM] | Fold over WT, IC50 IP1 assay ([1]; WT construct) | Fold over WT, IC50 IP1 assay [2] | IC50 [2] [nM] | Fold over WT, IC50 IP1 assay [3] | IC50 [3] [nM] | Fold over WT, IC50 IP1 assay [4] | IC50 [4] [nM]
COc1cc([N+](=O)[O-])ccc1S(=O)(=O)N1CC(CN2CCN(c3ccccn3)CC2)C(c2cccc(F)c2)C1 (stereo not shown) [AR-agonist] | 1300 ± 300 | 1 | cbd | 2400 ± 1100 | 1.8 | cbd | 170 | – | – | – | – | – | – | – | –
C=CCCN1CCC2(CC1)CN(C(=O)c1c(F)cccc1F)c1ccc(Cl)cc12 [AR-inverse] | – | – | – | – | – | – | 348 | 700 ± 100 | 1 | 3** | 2100 ± 400 | 1.3 | 900 ± 100 | 2.5** | 1700 ± 30
